According to DBAASP:
Values after ≈ are worked out from the molar mass of the structure shown.

What was measured:
Assay in all cases: ≥ marks a high value that may be exact or a test limit, other limits are often not marked, values filed in µg/mL are converted to µM
[1] = system: Escherichia coli 078
[2] = system: Escherichia coli ATCC 25922
[3] = system: Escherichia coli UB1005
[4] = system: Lacticaseibacillus rhamnosus 7469
[5] = system: Pseudomonas aeruginosa ATCC 27853
[6] = system: Salmonella enterica subsp. enterica serovar Pullorum ATCC 7913
[7] = system: Salmonella enterica subsp. enterica serovar Typhimurium ATCC 14028
[8] = system: Salmonella enterica subsp. enterica serovar Typhimurium C77-31
[9] = system: Staphylococcus aureus ATCC 25923
[10] = system: Staphylococcus aureus ATCC 29213
[11] = system: Staphylococcus epidermidis ATCC 12228
[12] = system: Streptococcus agalactiae CICC 10465
[13] = system: Streptococcus agalactiae
[14] = system: Streptococcus thermophilus YM-C
[15] = system: Bacillus megaterium ATCC 10778
[16] = system: Bacillus subtilis ATCC 6633
[17] = system: Candida albicans MDM8
[18] = system: Candida tropicalis IOC 4560
[19] = system: Enterobacter cloacae beta-12
[20] = system: Escherichia coli SBS 363
[21] = system: Micrococcus luteus A270
[22] = system: Serratia marcescens ATCC 4112
[23] = system: Candida albicans
[24] = system: Escherichia coli MG1655
[25] = system: Pseudomonas aeruginosa PAO1
[26] = system: Pseudomonas aeruginosa H1001

Row | Compound | MIC [1] [µM] | MIC [2] [µM] | MIC [3] [µM] | MIC [4] [µM] | MIC [5] [µM] | MIC [6] [µM] | MIC [7] [µM] | MIC [8] [µM] | MIC [9] [µM] | MIC [10] [µM] | MIC [11] [µM] | MIC [12] [µM] | MIC [13] [µM] | MIC [14] [µM] | MIC [23] [µM] | MIC [24] [µM] | MIC [25] [µM] | other results
1 | CC[C@H](C)[C@H](NC(=O)[C@H](CC(C)C)NC(=O)[C@@H](NC(=O)[C@@H](N)CC(=O)O)[C@@H](C)CC)C(=O)N[C@H](C(=O)N[C@H](C(=O)NCC(=O)NCC(=O)N[C@@H](CCCCN)C(=O)N[C@@H](CCCN=C(N)N)C(=O)N[C@@H](CCCN=C(N)N)C(=O)N[C@@H](CCCN=C(N)N)C(N)=O)C(C)C)[C@@H](C)CC [DILIIVGGKRRR] | ≥ 64 | > 64 | ≥ 64 | ≥ 64 | > 64 | ≥ 64 | > 64 | ≥ 64 | > 64 | > 64 | > 64 | 8 (≈ 11.2 µg/mL) | 5.66 (≈ 7.89 µg/mL) | ≥ 64 | – | – | – | –
2 | CC[C@H](C)[C@H](NC(=O)[C@H](CC(C)C)NC(=O)[C@@H](NC(=O)[C@@H](N)CC(=O)O)[C@@H](C)CC)C(=O)N[C@H](C(=O)N[C@H](C(=O)NCC(=O)NCC(=O)N[C@@H](CCCN=C(N)N)C(=O)N[C@@H](CCCN=C(N)N)C(=O)N[C@@H](CCCN=C(N)N)C(=O)N[C@@H](CCCN=C(N)N)C(=O)N[C@@H](CCCN=C(N)N)C(=O)N[C@@H](CCCN=C(N)N)C(=O)N[C@@H](CCCN=C(N)N)C(=O)N[C@@H](CCCN=C(N)N)C(N)=O)C(C)C)[C@@H](C)CC [DILIIVGGRRRRRRRR] | ≥ 32 | 4 (≈ 8.19 µg/mL) | 8 (≈ 16.4 µg/mL) | ≥ 64 | 8 (≈ 16.4 µg/mL) | 8 (≈ 16.4 µg/mL) | > 64 | ≥ 64 | 4 (≈ 8.19 µg/mL) | 2 (≈ 4.1 µg/mL) | 8 (≈ 16.4 µg/mL) | 4 (≈ 8.19 µg/mL) | 5.66 (≈ 11.6 µg/mL) | ≥ 64 | – | – | – | –
3 | CC(C)C[C@H](NC(=O)[C@H](C)NC(=O)CNC(=O)[C@H](CC(C)C)NC(=O)[C@@H](N)Cc1ccccc1)C(=O)N[C@@H](Cc1c[nH]c2ccccc12)C(=O)N[C@@H](CC(N)=O)C(=O)N1CCC[C@H]1C(=O)N[C@@H](C)C(=O)N[C@@H](CCCCN)C(=O)N[C@@H](CO)C(=O)N[C@H](C(=O)N[C@@H](Cc1ccccc1)C(N)=O)C(C)C [FLGALWNPAKSVF] | – | – | – | – | > 50 | – | – | – | – | > 50 | – | – | – | – | – | – | – | MIC [15]: ≥ 50 µM; MIC [16]: ≥ 50 µM; MIC [17]: ≥ 50 µM; MIC [18]: ≥ 50 µM; MIC [19]: ≥ 50 µM; MIC [20]: ≥ 50 µM; MIC [21]: 25 µM (≈ 36.2 µg/mL); MIC [22]: 12.5 µM (≈ 18.1 µg/mL)
4 | NCCCC[C@H](NC(=O)[C@H](CCCCN)NC(=O)[C@H](CCCN=C(N)N)NC(=O)[C@H](CCC(=O)O)NC(=O)[C@@H](N)CCCCN)C(=O)N[C@@H](CCCN=C(N)N)C(=O)N[C@@H](CCCN=C(N)N)C(=O)N[C@@H](CCCN=C(N)N)C(N)=O [KERKKRRR] | ≥ 64 | > 64 | ≥ 64 | ≥ 64 | > 64 | ≥ 64 | > 64 | ≥ 64 | > 64 | > 64 | > 64 | ≥ 64 | ≥ 64 | ≥ 64 | – | – | – | –
5 | CC[C@H](C)[C@H](NC(=O)[C@H](CCCN=C(N)N)NC(=O)[C@H](CCCN=C(N)N)NC(=O)[C@@H]1CCCN1C(=O)[C@H](Cc1ccc(O)cc1)NC(=O)[C@H](CCCN=C(N)N)NC(=O)[C@@H]1CCCN1C(=O)[C@H](CCCN=C(N)N)NC(=O)[C@@H]1CCCN1C(=O)[C@H](CC(C)C)NC(=O)[C@H](Cc1ccc(O)cc1)NC(=O)[C@@H]1CCCN1C(=O)[C@@H]1CCCN1C(=O)[C@H](CCCCN)NC(=O)[C@H](CC(=O)O)NC(=O)[C@@H](N)C(C)C)C(=O)N[C@@H](Cc1ccc(O)cc1)C(=O)N[C@@H](CC(N)=O)C(=O)N[C@@H](CCCN=C(N)N)C(=O)NCC(=O)O [VDKPPYLPRPRYPRRIYNRG] | – | – | – | – | – | – | – | – | – | – | – | – | – | – | – | – | – | MIC [26]: 0.0597 µM (≈ 0.15 µg/mL)

Second part, led by results:

Row | MIC [1] [µM] | MIC [2] [µM] | MIC [3] [µM] | MIC [4] [µM] | MIC [5] [µM] | MIC [6] [µM] | MIC [7] [µM] | MIC [8] [µM] | MIC [9] [µM] | MIC [10] [µM] | MIC [11] [µM] | MIC [12] [µM] | MIC [13] [µM] | MIC [14] [µM] | MIC [23] [µM] | MIC [24] [µM] | MIC [25] [µM] | Compound | other results
6 | ≥ 32 | 8 (≈ 15.4 µg/mL) | ≥ 32 | ≥ 64 | > 64 | 8 (≈ 15.4 µg/mL) | > 64 | ≥ 64 | > 64 | 4 (≈ 7.69 µg/mL) | 4 (≈ 7.69 µg/mL) | 4 (≈ 7.69 µg/mL) | 8 (≈ 15.4 µg/mL) | ≥ 64 | – | – | – | CC[C@H](C)[C@H](NC(=O)[C@H](CC(C)C)NC(=O)[C@@H](NC(=O)[C@@H](N)CC(=O)O)[C@@H](C)CC)C(=O)N[C@H](C(=O)N[C@H](C(=O)NCC(=O)NCC(=O)N[C@@H](CCCCN)C(=O)N[C@@H](CC(=O)O)C(=O)N[C@@H](CCCN=C(N)N)C(=O)N[C@@H](CCCCN)C(=O)N[C@@H](CCCCN)C(=O)N[C@@H](CCCN=C(N)N)C(=O)N[C@@H](CCCN=C(N)N)C(=O)N[C@@H](CCCN=C(N)N)C(N)=O)C(C)C)[C@@H](C)CC [DILIIVGGKDRKKRRR] | –
7 | – | – | – | – | – | – | – | – | – | 0.8 (≈ 1.23 µg/mL) | 3.1 (≈ 4.76 µg/mL) | – | – | – | – | – | – | CC(C)C[C@H](NC(=O)[C@H](C)NC(=O)[C@H](CCCCN)NC(=O)[C@H](CC(C)C)NC(=O)[C@@H](N)Cc1ccccc1)C(=O)N[C@@H](Cc1c[nH]c2ccccc12)C(=O)N[C@@H](CCCCN)C(=O)N[C@H](C(=O)N[C@@H](C)C(=O)N[C@@H](CCCCN)C(=O)N[C@@H](CO)C(=O)N[C@H](C(=O)N[C@@H](Cc1ccccc1)C(N)=O)C(C)C)C(C)C [FLKALWKVAKSVF] | MIC [15]: 0.4 µM (≈ 0.614 µg/mL); MIC [17]: 1.6 µM (≈ 2.46 µg/mL); MIC [18]: 0.8 µM (≈ 1.23 µg/mL); MIC [19]: 3.1 µM (≈ 4.76 µg/mL); MIC [20]: 1.6 µM (≈ 2.46 µg/mL); MIC [21]: 0.4 µM (≈ 0.614 µg/mL); MIC [22]: 0.1 µM (≈ 0.154 µg/mL)
8 | – | – | – | – | – | – | – | – | > 128 | – | – | – | – | – | > 128 | ≥ 128 | > 128 | CSCC[C@H](NC(=O)[C@@H](NC(=O)[C@H](CCCCN)NC(=O)[C@H](Cc1cnc[nH]1)NC(=O)[C@H](CC(C)C)NC(=O)CN)C(C)C)C(=O)N[C@@H](CCCN=C(N)N)C(=O)N[C@@H](CCC(=O)O)C(=O)N[C@H](C(=O)N[C@@H](CC(C)C)C(=O)NCC(=O)N[C@@H](Cc1ccc(O)cc1)C(N)=O)C(C)C [GLHKVMREVLGY] | –
9 | – | – | – | – | – | – | – | – | 8 (≈ 17.4 µg/mL) | – | – | – | – | – | 8 (≈ 17.4 µg/mL) | 1 (≈ 2.17 µg/mL) | 8 (≈ 17.4 µg/mL) | CSCC[C@H](NC(=O)[C@@H](NC(=O)[C@H](CCCCN)NC(=O)[C@H](Cc1cnc[nH]1)NC(=O)[C@H](CC(C)C)NC(=O)CN)C(C)C)C(=O)N[C@@H](CCCN=C(N)N)C(=O)N[C@@H](CCCCN)C(=O)N[C@H](C(=O)N[C@@H](CC(C)C)C(=O)NCC(=O)N[C@@H](Cc1ccc(O)cc1)C(=O)N[C@@H](CC(C)C)C(=O)N[C@@H](CCCN=C(N)N)C(=O)N[C@@H](CC(N)=O)C(=O)N[C@H](C(=O)N[C@@H](Cc1ccc(O)cc1)C(=O)N[C@@H](CCCCN)C(N)=O)C(C)C)C(C)C [GLHKVMRKVLGYLRNVYK] | –
10 | – | – | – | – | – | – | – | – | > 128 | – | – | – | – | – | > 128 | ≥ 128 | > 128 | CSCC[C@H](NC(=O)[C@@H](NC(=O)[C@@H](N)CCCCN)C(C)C)C(=O)N[C@@H](CCCN=C(N)N)C(=O)N[C@@H](CCC(=O)O)C(=O)N[C@H](C(=O)N[C@@H](CC(C)C)C(=O)NCC(=O)N[C@@H](Cc1ccc(O)cc1)C(=O)N[C@@H](CCC(=O)O)C(=O)N[C@@H](CCCN=C(N)N)C(=O)N[C@@H](CC(N)=O)C(=O)N[C@@H](CO)C(=O)N[C@@H](Cc1ccc(O)cc1)C(=O)N[C@@H](CCCCN)C(N)=O)C(C)C [KVMREVLGYERNSYK] | –
